Data on four compounds can be found in DBAASP.

The structures appear in SMILES notation. In brackets after ≈: the same amount, converted by molar mass.

Among the test systems are Bacillus subtilis 168; Escherichia coli Ec513; Escherichia coli JW0013; Escherichia coli J2210; Escherichia coli O157:H7; Escherichia coli MC1061; Escherichia coli JJ2487.
What all share (assay): ≥ marks a high value that may be exact or a test limit, other limits are often not marked, values filed in µg/mL are converted to µM
In assay [1] the test system is Candida tropicalis ATCC 13803.
In assay [2] the test system is Candida glabrata ATCC 2001.
The subject of assay [3] is Staphylococcus aureus USA 300.
The test system of assay [4] is Pseudomonas aeruginosa PAO1.
Assay [5] deals with Escherichia coli ATCC 25922.
The subject of assay [6] is Klebsiella pneumoniae ATCC 13883.
Assay [7] concerns Staphylococcus aureus USA 200.
Assay [8] relates to Staphylococcus aureus Newman.
For assay [9], the system named is Staphylococcus aureus USA 400.
Assay [10] deals with Candida albicans ATCC 10231.
Assay [11] has as its system Staphylococcus aureus MU50.
The test system of assay [12] is Staphylococcus aureus UAMS-1.
The test system of assay [13] is Staphylococcus epidermidis 1457.
Assay [14] relates to Acinetobacter baumannii Ab5753.
Assay [15] relates to Pseudomonas aeruginosa Pa1409.
For assay [16], the system named is Staphylococcus aureus NCTC 8325.
Assay [17] deals with Staphylococcus aureus Sa1390.
Assay [18] relates to Candida albicans ATCC 90028.
Assay [19] deals with Salmonella enterica subsp. enterica serovar Enteritidis MH91989.
In assay [20] the test system is Salmonella typhimurium SL1344.
For assay [21], the system named is Staphylococcus haemolyticus MTCC 3383.
Assay [22] has as its system Escherichia coli K12 MG1655.
Assay [23] concerns Enterococcus faecalis MTCC 439.
Assay [24] relates to Salmonella enterica MTCC 9844.
Assay [25] relates to Citrobacter koseri MTCC 1657.
Assay [26] deals with Citrobacter freundii MTCC 1658.
In assay [27] the test system is Proteus vulgaris MTCC 1771.
Assay [28] concerns Shigella flexneri MTCC 1457.
Assay [29] has as its system Acinetobacter baumannii MTCC 9829.
Assay [30] deals with Klebsiella pneumoniae MTCC 7407.
Assay [31] deals with Haemophilus influenzae MTCC 621.
The subject of assay [32] is Proteus mirabilis MTCC 3158.
Assay [33] relates to Alcaligenes faecalis MTCC 1937.
Assay [34] has as its system Pseudomonas aeruginosa MTCC 3542.
Assay [35] relates to Stenotrophomonas maltophilia MTCC 1890.
Assay [36] deals with Klebsiella aerogenes MTCC 111.
Assay [37] deals with Bordetella bronchiseptica MTCC 6837.
Assay [38] concerns Klebsiella oxytoca MTCC 2275.
Assay [39] concerns Vibrio cholerae MTCC 3904.
The test system of assay [40] is Corynebacterium glutamicum MTCC 2679.
The subject of assay [41] is Staphylococcus aureus MTCC 3160.
The subject of assay [42] is Salmonella enterica subsp. enterica serovar Typhimurium ATCC 14028.
The subject of assay [43] is Shigella boydii MTCC 11947.
In assay [44] the test system is Pluralibacter gergoviae MTCC 3826.
For assay [45], the system named is Alkalihalobacillus alcalophilus MTCC 860.

With `CC[C@H](C)[C@H](NC(=O)[C@H](C)NC(=O)[C@H](CO)NC(=O)[C@H](CC(C)C)NC(=O)[C@@H](N)Cc1ccccc1)C(=O)N[C@H](C(=O)N[C@@H](CO)C(=O)N[C@H](C(=O)N[C@@H](CC(C)C)C(=O)NCC(=O)N[C@@H](CCCCN)C(=O)N[C@@H](Cc1ccccc1)C(=O)N[C@@H](Cc1ccccc1)C(N)=O)[C@@H](C)CC)[C@@H](C)O` [FLSAITSILGKFF], the MIC is 6.2 µM (≈ 8.95 µg/mL) in assay [1]; 25 µM (≈ 36.1 µg/mL) in [2]; 6.3 µM (≈ 9.09 µg/mL) in assay [3]; greater than 50 µM in assay [4]; greater than 50 µM in [5]; no less than 50 µM in assay [6]. Also, the MIC is 6.25 µM (≈ 9.02 µg/mL) in assay [7]; 12.5 µM (≈ 18 µg/mL) in assay [8]; 6.25 µM (≈ 9.02 µg/mL) in assay [9]; 25 µM (≈ 36.1 µg/mL) in [10]; 12.5 µM (≈ 18 µg/mL) in assay [11]; 12.5 µM (≈ 18 µg/mL) against Bacillus subtilis 168. For the same compound, the MIC stood at 25 µM (≈ 36.1 µg/mL) in assay [12] and 6.3 µM (≈ 9.09 µg/mL) in [13].

For the compound `CC[C@H](C)[C@H](NC(=O)[C@H](CC(C)C)NC(=O)[C@H](C)NC(=O)[C@@H]1CCCN1C(=O)[C@H](Cc1ccccc1)NC(=O)[C@H](C)NC(=O)[C@H](CCCCN)NC(=O)[C@H](CCSC)NC(=O)[C@H](CC(C)C)NC(=O)CNC(=O)CNC(=O)[C@H](CC(C)C)NC(=O)[C@@H](N)Cc1ccccc1)C(=O)N[C@H]1CSSC[C@@H](C(=O)O)NC(=O)[C@H](CCCCN)NC(=O)[C@H](CCCCN)NC(=O)[C@H]([C@@H](C)O)NC(=O)[C@H](C(C)C)NC(=O)[C@H](C)NC1=O` [FLGGLMKAFPALICAVTKKC], the MIC in [14] is no less than 60.6 µM; in [5] it was 4 µM (≈ 8.44 µg/mL); in assay [15], no less than 60.6 µM; in assay [16], 17 µM (≈ 35.9 µg/mL); in assay [17], 30.3 µM (≈ 63.9 µg/mL); in assay [18], 14 µM (≈ 29.5 µg/mL). In addition, the MIC with Escherichia coli Ec513 is no less than 60.6 µM.

`CC[C@H](C)[C@H](NC(=O)[C@H](CCCN=C(N)N)NC(=O)[C@H](CCCN=C(N)N)NC(=O)[C@@H]1CCCN1C(=O)[C@@H]1CCCN1C(=O)[C@H](CCCN=C(N)N)NC(=O)[C@@H]1CCCN1C(=O)[C@H](CCCN=C(N)N)NC(=O)[C@@H]1CCCN1C(=O)[C@H](CCCCN)NC(=O)[C@H](Cc1ccc(O)cc1)NC(=O)[C@@H]1CCCN1C(=O)[C@@H]1CCCN1C(=O)[C@H](CCCCN)NC(=O)[C@H](CC(=O)O)NC(=O)[C@@H](N)C(C)C)C(=O)N[C@@H](Cc1ccc(O)cc1)C(=O)N[C@@H](CC(N)=O)C(=O)N[C@@H](CCCN=C(N)N)C(N)=O` [VDKPPYKPRPRPPRRIYNR]: the MIC turned out to be 0.249 µM (≈ 0.6 µg/mL) in [19]; 0.249 µM (≈ 0.6 µg/mL) in the assay with Escherichia coli JW0013; 0.249 µM (≈ 0.6 µg/mL) in assay [20]; 0.125 µM (≈ 0.3 µg/mL) with Escherichia coli J2210; 0.998 µM (≈ 2.4 µg/mL) in the assay with Escherichia coli O157:H7; 0.0623 µM (≈ 0.15 µg/mL) against Escherichia coli MC1061. In addition, the MIC with Escherichia coli JJ2487 worked out at 0.328 µM (≈ 0.79 µg/mL).

On to `CC(C)C[C@H](NC(=O)[C@H](CCCCN)NC(=O)[C@@H]1CCCN1C(=O)[C@H](CC(C)C)NC(=O)[C@H](CO)NC(=O)[C@H](CCCN=C(N)N)NC(=O)[C@H](C)NC(=O)[C@H](CCCCN)NC(=O)[C@H](CCCCN)NC(=O)[C@H](Cc1ccccc1)NC(=O)[C@H](Cc1ccccc1)NC(=O)[C@H](CCCCN)NC(=O)[C@H](CCCCN)NC(=O)[C@H](Cc1c[nH]c2ccccc12)NC(=O)[C@@H](N)CO)C(=O)N[C@@H](Cc1ccccc1)C(=O)O` [SWKKFFKKARSLPKLF], for which the MIC was 3.98 µM (≈ 8 µg/mL) in [21]; 1.99 µM (≈ 4 µg/mL) in [22]; no less than 63.6 µM in [23]; 3.98 µM (≈ 8 µg/mL) in [24]; 3.98 µM (≈ 8 µg/mL) in assay [25]; 15.9 µM (≈ 32 µg/mL) in [26]. For the same compound, the MIC in [27] was 7.95 µM (≈ 16 µg/mL); in [28], 1.99 µM (≈ 4 µg/mL); in assay [29], 1.99 µM (≈ 4 µg/mL); in assay [30] it was 15.9 µM (≈ 32 µg/mL); in assay [31], 0.994 µM (≈ 2 µg/mL); in assay [32] it was no less than 63.6 µM. The MIC was found to be 31.8 µM (≈ 64 µg/mL) in assay [33]; 15.9 µM (≈ 32 µg/mL) in [34]; 7.95 µM (≈ 16 µg/mL) in assay [35]; 7.95 µM (≈ 16 µg/mL) in assay [36]; 0.497 µM (≈ 1 µg/mL) in assay [37]; 7.95 µM (≈ 16 µg/mL) in [38]. Moreover, the MIC in assay [39] is 31.8 µM (≈ 64 µg/mL); in [40], 0.994 µM (≈ 2 µg/mL); in assay [41] it was no less than 63.6 µM; in [42], 3.98 µM (≈ 8 µg/mL); in [43], 0.994 µM (≈ 2 µg/mL); in assay [44], 31.8 µM (≈ 64 µg/mL). Also, the MIC in [45] was found to be 15.9 µM (≈ 32 µg/mL).
